Results as given in PubChem BioAssay AID2060505 (Molecular Pharmacology Branch, DTP, NCI, 2025).

Test system: 633275-114-R-J1-PDC complex spheroids, viability
Assay: Anticancer human tumor 633275-114-R-J1-PDC patient-derived endometrial adenocarcinoma cell line growth inhibition [GQUAD]
Settings: for IC50: curve of first compound; for viability, T/C: stronger effect = lower value
Procedure, shortened: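 Multi-cell-type spheroids of tumor cells with HUVEC and mesenchymal stem cells, treated with drug combinations. Concentrations descend in half-log steps from near clinical Cmax, or from 10 microM where Cmax is unknown; viability read-out.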

[1] = second compound 0.0316 µM, first compound 0.0316 µM
[2] = second compound 0.0316 µM, first compound 0.316 µM
[3] = second compound 0.1 µM, first compound 0.0316 µM
[4] = second compound 0.1 µM, first compound 0.316 µM
[5] = second compound 0.316 µM, first compound 0.0316 µM
[6] = second compound 0.316 µM, first compound 0.316 µM
[7] = second compound 1 µM, first compound 0.0316 µM
[8] = second compound 1 µM, first compound 0.316 µM
[9] = second compound 3.16 µM, first compound 0.0316 µM
[10] = second compound 3.16 µM, first compound 0.316 µM
[11] = second compound 10 µM, first compound 0.0316 µM
[12] = second compound 10 µM, first compound 0.316 µM
[13] = second compound 0.0316 µM, first compound 0.000999 µM
[14] = second compound 0.0316 µM, first compound 0.00316 µM
[15] = second compound 0.0316 µM, first compound 0.00999 µM
[16] = second compound 0.0316 µM, first compound 0.0999 µM
[17] = second compound 0.1 µM, first compound 0.000999 µM
[18] = second compound 0.1 µM, first compound 0.00316 µM
[19] = second compound 0.1 µM, first compound 0.00999 µM
[20] = second compound 0.1 µM, first compound 0.0999 µM
[21] = second compound 0.316 µM, first compound 0.000999 µM
[22] = second compound 0.316 µM, first compound 0.00316 µM
[23] = second compound 0.316 µM, first compound 0.00999 µM
[24] = second compound 0.316 µM, first compound 0.0999 µM
[25] = second compound 1 µM, first compound 0.000999 µM
[26] = second compound 1 µM, first compound 0.00316 µM
[27] = second compound 1 µM, first compound 0.00999 µM
[28] = second compound 1 µM, first compound 0.0999 µM
[29] = second compound 3.16 µM, first compound 0.000999 µM
[30] = second compound 3.16 µM, first compound 0.00316 µM
[31] = second compound 3.16 µM, first compound 0.00999 µM
[32] = second compound 3.16 µM, first compound 0.0999 µM
[33] = second compound 10 µM, first compound 0.000999 µM
[34] = second compound 10 µM, first compound 0.00316 µM
[35] = second compound 10 µM, first compound 0.00999 µM
[36] = second compound 10 µM, first compound 0.0999 µM
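Further: spheroids exposed to the agents for seven days.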
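Wherever viability, T/C is given: percent of DMSO vehicle control viability which is 100%.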

C=CC(=O)N1CCN(c2nc(=O)n(-c3c(C)ccnc3C(C)C)c3nc(-c4c(O)cccc4F)c(F)cc23)C(C)C1 (stereo unspecified) + Cc1[nH]c2ccc(F)cc2c1-c1nc2c3cccnc3c3ncccc3c2[nH]1
IC50 (second compound 0.0316 µM): > 10000 nM
IC50 (second compound 0.1 µM): > 10000 nM
IC50 (second compound 0.316 µM): > 10000 nM
IC50 (second compound 1 µM): > 10000 nM
IC50 (second compound 3.16 µM): > 10000 nM
IC50 (second compound 10 µM): > 10000 nM
viability, T/C [1]: 95.3%
viability, T/C (second compound 0.0316 µM, first compound 0.1 µM): 100%
viability, T/C [2]: 93.9%
viability, T/C (second compound 0.0316 µM, first compound 1 µM): 104%
viability, T/C (second compound 0.0316 µM, first compound 3.16 µM): 104%
viability, T/C (second compound 0.0316 µM, first compound 10 µM): 77.9%
viability, T/C [3]: 106%
viability, T/C (second compound 0.1 µM, first compound 0.1 µM): 105%
viability, T/C [4]: 102%
viability, T/C (second compound 0.1 µM, first compound 1 µM): 100%
viability, T/C (second compound 0.1 µM, first compound 3.16 µM): 105%
viability, T/C (second compound 0.1 µM, first compound 10 µM): 88.9%
viability, T/C [5]: 97.3%
viability, T/C (second compound 0.316 µM, first compound 0.1 µM): 98.1%
viability, T/C [6]: 103%
viability, T/C (second compound 0.316 µM, first compound 1 µM): 97.6%
viability, T/C (second compound 0.316 µM, first compound 3.16 µM): 105%
viability, T/C (second compound 0.316 µM, first compound 10 µM): 83.3%
viability, T/C [7]: 91.5%
viability, T/C (second compound 1 µM, first compound 0.1 µM): 92.4%
viability, T/C [8]: 94.7%
viability, T/C (second compound 1 µM, first compound 1 µM): 98.1%
viability, T/C (second compound 1 µM, first compound 3.16 µM): 90.1%
viability, T/C (second compound 1 µM, first compound 10 µM): 77.9%
viability, T/C [9]: 72.5%
viability, T/C (second compound 3.16 µM, first compound 0.1 µM): 74.9%
viability, T/C [10]: 75.8%
viability, T/C (second compound 3.16 µM, first compound 1 µM): 76.3%
viability, T/C (second compound 3.16 µM, first compound 3.16 µM): 74.2%
viability, T/C (second compound 3.16 µM, first compound 10 µM): 62.6%
viability, T/C [11]: 67%
viability, T/C (second compound 10 µM, first compound 0.1 µM): 71.8%
viability, T/C [12]: 68.2%
viability, T/C (second compound 10 µM, first compound 1 µM): 78.7%
viability, T/C (second compound 10 µM, first compound 3.16 µM): 71.6%
viability, T/C (second compound 10 µM, first compound 10 µM): 59%

CC[C@@]1(O)C(=O)OCc2c1cc1n(c2=O)Cc2cc3c(CN(C)C)c(O)ccc3nc2-1 + Cc1[nH]c2ccc(F)cc2c1-c1nc2c3cccnc3c3ncccc3c2[nH]1
IC50 (second compound 0.0316 µM): 79.9 nM
IC50 (second compound 0.1 µM): 83.9 nM
IC50 (second compound 0.316 µM): 74.4 nM
IC50 (second compound 1 µM): 73.1 nM
IC50 (second compound 3.16 µM): 46.3 nM
IC50 (second compound 10 µM): 43.4 nM
viability, T/C [13]: 98.6%
viability, T/C [14]: 91.9%
viability, T/C [15]: 86.8%
viability, T/C [1]: 69.6%
viability, T/C [16]: 43.9%
viability, T/C [2]: 36.9%
viability, T/C [17]: 93.8%
viability, T/C [18]: 93.6%
viability, T/C [19]: 87.7%
viability, T/C [3]: 73.4%
viability, T/C [20]: 45.3%
viability, T/C [4]: 35.8%
viability, T/C [21]: 94%
viability, T/C [22]: 99.1%
viability, T/C [23]: 88.2%
viability, T/C [5]: 71.2%
viability, T/C [24]: 41.8%
viability, T/C [6]: 36.5%
viability, T/C [25]: 90.4%
viability, T/C [26]: 91.8%
viability, T/C [27]: 79.3%
viability, T/C [7]: 68%
viability, T/C [28]: 41.9%
viability, T/C [8]: 36.3%
viability, T/C [29]: 71.7%
viability, T/C [30]: 70.4%
viability, T/C [31]: 69.1%
viability, T/C [9]: 56.5%
viability, T/C [32]: 37.1%
viability, T/C [10]: 33.2%
viability, T/C [33]: 66.5%
viability, T/C [34]: 74.4%
viability, T/C [35]: 71%
viability, T/C [11]: 54.6%
viability, T/C [36]: 36.5%
viability, T/C [12]: 29.7%

CCc1c2c(nc3ccc(O)cc13)-c1cc3c(c(=O)n1C2)COC(=O)[C@]3(O)CC + Cc1[nH]c2ccc(F)cc2c1-c1nc2c3cccnc3c3ncccc3c2[nH]1
IC50 (second compound 0.0316 µM): 2.44 nM
IC50 (second compound 0.1 µM): 3.09 nM
IC50 (second compound 0.316 µM): 2.7 nM
IC50 (second compound 1 µM): 2.27 nM
IC50 (second compound 3.16 µM): 1.62 nM
IC50 (second compound 10 µM): 1.41 nM
viability, T/C [13]: 69.7%
viability, T/C [14]: 42.2%
viability, T/C [15]: 36.2%
viability, T/C [1]: 31.7%
viability, T/C [16]: 30%
viability, T/C [2]: 24.7%
viability, T/C [17]: 71.1%
viability, T/C [18]: 47.1%
viability, T/C [19]: 37.2%
viability, T/C [3]: 34.3%
viability, T/C [20]: 27.3%
viability, T/C [4]: 22.3%
viability, T/C [21]: 68.8%
viability, T/C [22]: 44.2%
viability, T/C [23]: 37.5%
viability, T/C [5]: 31.4%
viability, T/C [24]: 28%
viability, T/C [6]: 22.4%
viability, T/C [25]: 62.6%
viability, T/C [26]: 43.5%
viability, T/C [27]: 35.1%
viability, T/C [7]: 32.3%
viability, T/C [28]: 27.5%
viability, T/C [8]: 23.4%
viability, T/C [29]: 57.5%
viability, T/C [30]: 38.9%
viability, T/C [31]: 33.2%
viability, T/C [9]: 30.8%
viability, T/C [32]: 27.6%
viability, T/C [10]: 25.8%
viability, T/C [33]: 55.2%
viability, T/C [34]: 37.7%
viability, T/C [35]: 33%
viability, T/C [11]: 29.5%
viability, T/C [36]: 24.8%
viability, T/C [12]: 23.7%
